According to patent US5470852A, “Tetrahydroprotoberberine quaternary ammonium compounds useful in for treating arrhythmia” (priority 1991, dated 1995):
Read-outs that look alike come from different tables or passages of the source.

What was measured:
[1] = system: dogs; experiment: Ouabain-induced arrhythmia in dogs; format: in vivo, dog; conditions: for Incidence of arrhythmia: I13 iv 3 mg/kg, lidocaine iv 12 mg/kg
Method: (iv, 12 mg/kg) on ouabain induced arrhythmia in dogs
(Ouabain administration for 30 min)

[2] = system: anaesthetized rats; conditions: for Arrhythmic scores / Lethal risk / Antiarrhythmic effect: X ± SD; for Incidence of VF: n=10; for Death / animals with VF / animals without VF: of n=10; for therapeutic index (TI), VF / therapeutic index (TI), arrhythmias: rat, in vivo
[3] = system: left ventricular activity in rabbits; experiment: Monophasic action potential (MAP) recorded from left ventricle in rabbits; format: in vivo, rabbit
Description: The effectiveness of I13 in lengthening APD is confirmed by the influence on monophasic action potential (MAP) recorded from the left ventricular activity in rabbits.

[4] = system: Langendorff's perfused rat hearts; experiment: Lasting antiarrhythmic action after po administration, hearts removed and mounted on Langendorff's apparatus; format: in vivo; design: ke: unit not given beside the values
Method: 1, 3 and 6 hours after the administration of 100 mg/kg of I13 by p.o. to rats, the hearts were removed and mounted onto Langendorff's apparatus. […] (see FIG. 4)
FIG. 4. Influence of po I13 and mexiletine on the time course of reperfusion-induced arrhythmias in Langendorff's perfused rat hearts

[5] = system: rabbits; experiment: APD 24 hours after AMI in rabbits; format: in vivo, rabbit
Method: 24 hours after AMI, APD is markedly shortened.

[6] = system: various experimental arrhythmic models; experiment: Overall antiarrhythmic, anti-VF and anti-ischemic activity (summary); format: in vivo

## COc1ccc2c(c1OC)C[N+]1(Cc3ccc(Cl)cc3)CCc3cc4c(cc3C1C2)OCO4 (stereo not drawn) [Compound I13, 7-(4-chlorobenzyl)-5,8,13,13a-tetrahydroberberine chloride]
[1]; 0 min (before administration)
  Incidence of arrhythmia: 97 ± 5%
[1]; 5 min
  Incidence of arrhythmia: 83 ± 22%
[1]; 10 min
  Incidence of arrhythmia: 72 ± 31%
[1]; 15 min
  Incidence of arrhythmia: 59 ± 36%
[1]; 20 min
  Incidence of arrhythmia: 45 ± 43%
[1]; 25 min
  Incidence of arrhythmia: 40 ± 38%
[1]; 30 min
  Incidence of arrhythmia: 27 ± 34%
[1]; 35 min
  Incidence of arrhythmia: 26 ± 34%
[1]; 40 min
  Incidence of arrhythmia: 14 ± 33%
[1]; 45 min
  Incidence of arrhythmia: 12 ± 31%
[1]; 50 min
  Incidence of arrhythmia: 11 ± 28%
[1]; 60 min
  Incidence of arrhythmia: 8 ± 20%
[1]; dogs
  inhibition of ouabain-induced arrhythmias: markedly inhibited
[1]; i.v. gtt. 0.1 mg/kg/min for 30 mins vs lidocaine 0.4 mg/kg/min
  antiarrhythmic effect compared with lidocaine: the same antiarrhythmic effect as lidocaine
[1]; ouabain, dogs
  anti-arrhythmic activity relative to lidocaine: 4 times
[1]; within 4 hour period
  reoccurrence of arrhythmia: lack of reoccurrence of arrhythmia within a 4 hour period
[2]; i.v.
  anti-arrhythmic activity relative to lidocaine: 10 times
[2]; i.v. or p.o.
  inhibition of arrhythmias and VF induced by left coronary artery ligation: significantly inhibited
[2]; iv 0.1 mg/kg
  Arrhythmic scores: 2.4 ± 2.2
  Lethal risk: 75 ± 30
  Incidence of VF: 30%
  Death: 3
  animals with VF: 3
  animals without VF: 4
[2]; iv 0.1 mg/kg, coronary occlusion 5 min
  Antiarrhythmic effect: 0.25 ± 0.26
[2]; iv 0.1 mg/kg, coronary occlusion 10 min
  Antiarrhythmic effect: 1.7 ± 2.1
[2]; iv 0.1 mg/kg, reperfusion 0.17 min
  Antiarrhythmic effect: 2.2 ± 2.5
[2]; iv 0.1 mg/kg, reperfusion 0.33 min
  Antiarrhythmic effect: 2.1 ± 2.1
[2]; iv 0.1 mg/kg, reperfusion 0.5 min
  Antiarrhythmic effect: 2.4 ± 2.2
[2]; iv 0.1 mg/kg, reperfusion 1 min
  Antiarrhythmic effect: 2.3 ± 2.6
[2]; iv 0.1 mg/kg, reperfusion 2 min
  Antiarrhythmic effect: 1.6 ± 2.1
[2]; iv 0.1 mg/kg, reperfusion 3 min
  Antiarrhythmic effect: 1.6 ± 2.1
[2]; iv 0.1 mg/kg, reperfusion 5 min
  Antiarrhythmic effect: 1.6 ± 2.1
[2]; iv 0.1 mg/kg, reperfusion 6 min
  Antiarrhythmic effect: 2.4 ± 3.4
[2]; iv 0.1 mg/kg, reperfusion 7 min
  Antiarrhythmic effect: 0.20 ± 0.26
[2]; iv 0.1 mg/kg, reperfusion 10 min
  Antiarrhythmic effect: 0.42 ± 0.19
[2]; iv 0.1 mg/kg, reperfusion 15 min
  Antiarrhythmic effect: 0.42 ± 0.19
[2]; iv 0.1 mg/kg, reperfusion 25 min
  Antiarrhythmic effect: 0.43 ± 0.19
[2]; iv 0.3 mg/kg
  Arrhythmic scores: 1.2 ± 1.7
  Lethal risk: 57 ± 26
  Incidence of VF: 20%
  Death: 1
  animals with VF: 2
  animals without VF: 7
[2]; iv 0.3 mg/kg, coronary occlusion 5 min
  Antiarrhythmic effect: 0.6 ± 1.3
[2]; iv 0.3 mg/kg, coronary occlusion 10 min
  Antiarrhythmic effect: 0.9 ± 1.9
[2]; iv 0.3 mg/kg, reperfusion 0.17 min
  Antiarrhythmic effect: 0.9 ± 1.3
[2]; iv 0.3 mg/kg, reperfusion 0.33 min
  Antiarrhythmic effect: 1.3 ± 2.0
[2]; iv 0.3 mg/kg, reperfusion 0.5 min
  Antiarrhythmic effect: 1.2 ± 1.7
[2]; iv 0.3 mg/kg, reperfusion 1 min
  Antiarrhythmic effect: 0.8 ± 1.8
[2]; iv 0.3 mg/kg, reperfusion 2 min
  Antiarrhythmic effect: 0.8 ± 1.8
[2]; iv 0.3 mg/kg, reperfusion 3 min
  Antiarrhythmic effect: 0.22 ± 0.26
[2]; iv 0.3 mg/kg, reperfusion 5 min
  Antiarrhythmic effect: 0.6 ± 1.2
[2]; iv 0.3 mg/kg, reperfusion 6 min
  Antiarrhythmic effect: 0.8 ± 1.8
[2]; iv 0.3 mg/kg, reperfusion 7 min
  Antiarrhythmic effect: 0.8 ± 1.8
[2]; iv 0.3 mg/kg, reperfusion 10 min
  Antiarrhythmic effect: 0.8 ± 1.8
[2]; iv 0.3 mg/kg, reperfusion 15 min
  Antiarrhythmic effect: 1.0 ± 2.2
[2]; iv 0.3 mg/kg, reperfusion 25 min
  Antiarrhythmic effect: 0.2 ± 0.4
[2]; iv 1.0 mg/kg
  Arrhythmic scores: 1.3 ± 1.7
  Lethal risk: 41 ± 0
  Incidence of VF: 0%
  Death: 0
  animals with VF: 0
  animals without VF: 10
[2]; iv 1.0 mg/kg, coronary occlusion 5 min
  Antiarrhythmic effect: 0.4 ± 0.2
[2]; iv 1.0 mg/kg, coronary occlusion 10 min
  Antiarrhythmic effect: 0.4 ± 0.2
[2]; iv 1.0 mg/kg, reperfusion 0.17 min
  Antiarrhythmic effect: 1.4 ± 1.4
[2]; iv 1.0 mg/kg, reperfusion 0.33 min
  Antiarrhythmic effect: 3.2 ± 2.0
[2]; iv 1.0 mg/kg, reperfusion 0.5 min
  Antiarrhythmic effect: 1.6 ± 1.6
[2]; iv 1.0 mg/kg, reperfusion 2 min
  Antiarrhythmic effect: 0.20 ± 0.26
[2]; iv 1.0 mg/kg, reperfusion 3 min
  Antiarrhythmic effect: 0.20 ± 0.26
[2]; iv 1.0 mg/kg, reperfusion 5 min
  Antiarrhythmic effect: 0.20 ± 0.26
[2]; iv 1.0 mg/kg, reperfusion 6 min
  Antiarrhythmic effect: 0.20 ± 0.26
[2]; iv 1.0 mg/kg, reperfusion 7 min
  Antiarrhythmic effect: 0.20 ± 0.26
[2]; iv 1.0 mg/kg, reperfusion 10 min
  Antiarrhythmic effect: 0.20 ± 0.26
[2]; iv 1.0 mg/kg, reperfusion 15 min
  Antiarrhythmic effect: 0.10 ± 0.21
[2]; iv 1.0 mg/kg, reperfusion 25 min
  Antiarrhythmic effect: 0.10 ± 0.21
[2]; p.o.
  potency relative to propafenon: considerably more potent
[2]; po 10 mg/kg
  Arrhythmic scores: 2.7 ± 1.9
  Incidence of VF: 20%
  animals with VF: 2
  animals without VF: 8
[2]; po 10 mg/kg, coronary occlusion 5 min
  Antiarrhythmic effect: 0.4 ± 0.8
[2]; po 10 mg/kg, coronary occlusion 10 min
  Antiarrhythmic effect: 0.50 ± 0.16
[2]; po 10 mg/kg, reperfusion 0.17 min
  Antiarrhythmic effect: 2.6 ± 1.8
[2]; po 10 mg/kg, reperfusion 0.33 min
  Antiarrhythmic effect: 2.7 ± 1.9
[2]; po 10 mg/kg, reperfusion 0.5 min
  Antiarrhythmic effect: 1.9 ± 1.7
[2]; po 10 mg/kg, reperfusion 1 min
  Antiarrhythmic effect: 1.9 ± 1.6
[2]; po 10 mg/kg, reperfusion 1.5 min
  Antiarrhythmic effect: 1.4 ± 1.3
[2]; po 10 mg/kg, reperfusion 3 min
  Antiarrhythmic effect: 1.1 ± 1.5
[2]; po 10 mg/kg, reperfusion 4 min
  Antiarrhythmic effect: 1.2 ± 1.4
[2]; po 10 mg/kg, reperfusion 5 min
  Antiarrhythmic effect: 1.0 ± 1.2
[2]; po 10 mg/kg, reperfusion 6 min
  Antiarrhythmic effect: 0.8 ± 1.1
[2]; po 10 mg/kg, reperfusion 7 min
  Antiarrhythmic effect: 0.8 ± 1.1
[2]; po 10 mg/kg, reperfusion 15 min
  Antiarrhythmic effect: 0.8 ± 1.1
[2]; po 10 mg/kg, reperfusion 25 min
  Antiarrhythmic effect: 0.8 ± 1.1
[2]; po 30 mg/kg
  Arrhythmic scores: 3.2 ± 2.2
  Lethal risk: 57 ± 26
  Incidence of VF: 20%
  Death: 1
  animals with VF: 2
  animals without VF: 7
[2]; po 30 mg/kg, coronary occlusion 5 min
  Antiarrhythmic effect: 0 ± 0
[2]; po 30 mg/kg, coronary occlusion 10 min
  Antiarrhythmic effect: 1.6 ± 1.6
[2]; po 30 mg/kg, reperfusion 0.17 min
  Antiarrhythmic effect: 3.2 ± 1.2
[2]; po 30 mg/kg, reperfusion 0.33 min
  Antiarrhythmic effect: 2.8 ± 2.1
[2]; po 30 mg/kg, reperfusion 0.5 min
  Antiarrhythmic effect: 1.7 ± 1.7
[2]; po 30 mg/kg, reperfusion 1 min
  Antiarrhythmic effect: 1.1 ± 1.5
[2]; po 30 mg/kg, reperfusion 1.5 min
  Antiarrhythmic effect: 1.1 ± 1.5
[2]; po 30 mg/kg, reperfusion 3 min
  Antiarrhythmic effect: 1.6 ± 2.4
[2]; po 30 mg/kg, reperfusion 4 min
  Antiarrhythmic effect: 0.8 ± 1.3
[2]; po 30 mg/kg, reperfusion 5 min
  Antiarrhythmic effect: 0.2 ± 0.2
[2]; po 30 mg/kg, reperfusion 6 min
  Antiarrhythmic effect: 0.2 ± 0.2
[2]; po 30 mg/kg, reperfusion 7 min
  Antiarrhythmic effect: 0.15 ± 0.24
[2]; po 30 mg/kg, reperfusion 15 min
  Antiarrhythmic effect: 0.11 ± 0.22
[2]; po 30 mg/kg, reperfusion 25 min
  Antiarrhythmic effect: 0.05 ± 0.17
[2]; po 100 mg/kg
  Arrhythmic scores: 0.7 ± 0.2
  Lethal risk: 41 ± 0
  Incidence of VF: 0%
  Death: 0
  animals with VF: 0
  animals without VF: 10
[2]; po 100 mg/kg, coronary occlusion 5 min
  Antiarrhythmic effect: 0.20 ± 0.24
[2]; po 100 mg/kg, coronary occlusion 10 min
  Antiarrhythmic effect: 0.3 ± 0.6
[2]; po 100 mg/kg, reperfusion 0.17 min
  Antiarrhythmic effect: 0.10 ± 0.21
[2]; po 100 mg/kg, reperfusion 0.33 min
  Antiarrhythmic effect: 0.05 ± 0.16
[2]; po 100 mg/kg, reperfusion 0.5 min
  Antiarrhythmic effect: 0.4 ± 1.2
[2]; po 100 mg/kg, reperfusion 1 min
  Antiarrhythmic effect: 0.05 ± 0.16
[2]; po 100 mg/kg, reperfusion 1.5 min
  Antiarrhythmic effect: 0.05 ± 0.16
[2]; po 100 mg/kg, reperfusion 3 min
  Antiarrhythmic effect: 0.05 ± 0.16
[2]; po 100 mg/kg, reperfusion 4 min
  Antiarrhythmic effect: 0.05 ± 0.16
[2]; po 100 mg/kg, reperfusion 5 min
  Antiarrhythmic effect: 0.05 ± 0.16
[2]; po 100 mg/kg, reperfusion 6 min
  Antiarrhythmic effect: 0.05 ± 0.16
[2]; po 100 mg/kg, reperfusion 7 min
  Antiarrhythmic effect: 0.05 ± 0.16
[2]; po 100 mg/kg, reperfusion 15 min
  Antiarrhythmic effect: 0.05 ± 0.16
[2]; po 100 mg/kg, reperfusion 25 min
  Antiarrhythmic effect: 0.05 ± 0.16
[2]; iv
  therapeutic index (TI), VF: 35
  therapeutic index (TI), arrhythmias: 26
[2]; po
  therapeutic index (TI), VF: 92
  therapeutic index (TI), arrhythmias: 70
[3]
  lengthening of APD (MAP): confirmed
[4]; 30 mg/kg po at 1 hr before experiment (FIG. 4)
  ke: 0.144
[4]; 100 mg/kg po at 1 hr before experiment (FIG. 4)
  ke: 0.556
[4]; 100 mg/kg po at 3 hr before experiment (FIG. 4)
  ke: 0.056
[4]; 100 mg/kg po at 6 hr before experiment (FIG. 4)
  ke: 0.037
[4]; 1, 3 and 6 hours after p.o. 100 mg/kg, 30 min washing
  antiarrhythmic effects after washing isolated hearts: persisted even after 30 minutes of washing
[5]
  effect on APD shortening after AMI: could be cancelled
[6]; in vivo
  inhibition of ventricular fibrillation and myocardial ischemia: inhibits ventricular fibrillation and myocardial ischemia
  protection against arrhythmia, VF and myocardial ischemic injury: advanced protection against arrhythmia, ventricular fibrillation (VF) and myocardial ischemic injury
[6]; various experimental arrhythmic models
  antiarrhythmic effects: marked antiarrhythmic effects
